# Experimental data as given in ChEMBL document CHEMBL3098036, “Sulfonamide inhibition studies of the δ-carbonic anhydrase from the diatom Thalassiosira weissflogii” (Bioorg Med Chem Lett, 2014).
# Target: T1, Delta carbonic anhydrase (Conticribra weissflogii, UniProt Q5U9J1)
# T1 sequence (Q5U9J1 whole entry): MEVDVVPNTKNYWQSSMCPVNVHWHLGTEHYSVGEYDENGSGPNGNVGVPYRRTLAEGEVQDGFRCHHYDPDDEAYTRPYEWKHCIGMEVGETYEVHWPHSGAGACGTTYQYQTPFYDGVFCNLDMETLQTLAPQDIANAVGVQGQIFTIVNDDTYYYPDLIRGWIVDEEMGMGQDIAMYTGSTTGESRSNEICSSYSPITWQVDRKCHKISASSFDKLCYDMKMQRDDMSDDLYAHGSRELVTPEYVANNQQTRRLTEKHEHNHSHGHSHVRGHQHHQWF
row,Ki,Structure (SMILES)
1,392 nM,CC1(C)O[C@@H]2[C@@H](CO[C@@]3(COS(N)(=O)=O)OC(C)(C)O[C@@H]23)O1 [TOPIRAMATE]
2,7880 nM,NS(=O)(=O)c1ccc(CCNS(=O)(=O)c2ccc([N+](=O)[O-])cc2CO)cc1
3,897 nM,Nc1ccc(S(=O)(=O)NCc2ccc(S(N)(=O)=O)cc2)cc1
4,762 nM,NS(=O)(=O)c1cc(Cl)cc(Cl)c1O
5,375 nM,NS(=O)(=O)c1ccc(S(=O)(=O)Nc2cccc3c(Cl)c[nH]c23)cc1
6,12400 nM,Nc1ccc(S(=O)(=O)Nc2nnc(S(N)(=O)=O)s2)cc1
7,118 nM,CCN[C@H]1CN(CCCOC)S(=O)(=O)c2sc(S(N)(=O)=O)cc21 [BRINZOLAMIDE]
8,424 nM,NCc1ccc(S(N)(=O)=O)cc1 [MAFENIDE]
9,424 nM,NS(=O)(=O)c1cccc(S(N)(=O)=O)c1
10,265 nM,Cc1ccc(-c2cc(C(F)(F)F)nn2-c2ccc(S(N)(=O)=O)cc2)cc1 [CELECOXIB]
11,871 nM,NS(=O)(=O)c1ccc(C(=O)O)cc1 [CARZENIDE]
12,862 nM,Nc1ccc(S(=O)(=O)NCCc2ccc(S(N)(=O)=O)cc2)cc1
13,394 nM,NS(=O)(=O)c1nnc(NS(=O)(=O)c2ccccc2)s1 [BENZOLAMIDE]
14,94.6 nM,Nc1ccc(S(N)(=O)=O)cc1Br
15,15200 nM,NS(=O)(=O)c1ccc(CO)cc1
16,458 nM,NS(=O)(=O)c1cc(Cl)c(Cl)c(S(N)(=O)=O)c1 [DICHLORPHENAMIDE]
17,5530 nM,Cn1nc(S(N)(=O)=O)sc1=N
18,424 nM,Cc1ccc(S(N)(=O)=O)cc1 [P-TOLUENESULFONAMIDE]
19,615 nM,Nc1nccc(Nc2ccc(S(N)(=O)=O)cc2)n1
20,3740 nM,Nc1ccc(S(=O)(=O)Nc2ccc(S(N)(=O)=O)cc2)cc1
21,10600 nM,Nc1nnc(S(N)(=O)=O)s1
22,404 nM,NS(=O)(=O)Cc1noc2ccccc12 [ZONISAMIDE]
23,167 nM,Nc1ccc(S(N)(=O)=O)cc1Cl
24,295 nM,Nc1cccc(S(N)(=O)=O)c1
25,9200 nM,O=C1NS(=O)(=O)c2ccccc21 [SACCHARIN]
26,4700 nM,NS(=O)(=O)c1ccc(CCO)cc1

row,Structure (SMILES),Ki
1,CC(=O)/N=c1/sc(S(N)(=O)=O)nn1C [METHAZOLAMIDE],170 nM
